Source: ChEMBL document CHEMBL1152110, “Tetraazaacenaphthene and tetraazaphenalene derivatives: A new class of hepatoprotectants: Part IV” (1995)

What was measured:
Assay type in all cases: functional
Rattus norvegicus [1] = test: Hepatoprotective activity against thioacetamide-induced toxicity in rats at a dose of 6 mg/Kg dose (p.o. x 7 days) expressed as % protection afforded in […] (ALP) levels
Rattus norvegicus [2] = test: Hepatoprotective activity against thioacetamide-induced toxicity in rats at a dose of 6 mg/Kg dose (p.o. x 7 days), expressed as % protection afforded in glutamate oxaloacetate transaminase (GOT) levels
Rattus norvegicus [3] = test: Hepatoprotective activity against thioacetamide-induced toxicity in rats at a dose of 6 mg/Kg dose (p.o. x 7 days), expressed as % protection afforded in glutamate pyruvate transaminase (GPT) levels
Rattus norvegicus [4] = test: Hepatoprotective activity against thioacetamide-induced toxicity in rats at a dose of 6 mg/Kg dose (p.o. x 7 days), expressed as % protection afforded in serum bilirubin levels
Rattus norvegicus [5] = test: Hepatoprotective activity against thioacetamide-induced toxicity in rats at a dose of 6 mg/Kg dose (p.o. x 7 days), expressed as % protection afforded in […] (ALP) levels

| Compound | Protection (Rattus norvegicus [1]) [%] | Protection (Rattus norvegicus [2]) [%] | Protection (Rattus norvegicus [3]) [%] | Protection (Rattus norvegicus [4]) [%] | Protection (Rattus norvegicus [5]) [%] |
| --- | --- | --- | --- | --- | --- |
| O=C1C2C(=O)N(c3ccccc3)C(=S)N3CCN(C(=S)N1c1ccccc1)C23 (stereo unspecified) | 20 | 27 | 18 | 25 |  |
| CCN1C(=O)C2C(=O)N(CC)C(=S)N3CCN(C1=S)C23 (stereo unspecified) | 22 | 20 | 34 | 31 |  |
| Cc1ccccc1N1C(=O)C2C(=O)N(c3ccccc3C)C(=O)N3CCN(C1=O)C23 (stereo unspecified) | 16 | 18 | 15 | 18 |  |
| CCN1C(=N)C2C(=O)N(CC)C(=S)N3CCN(C1=S)C23 (stereo unspecified) | 17 | 50 | 87 | 57 |  |
| CCO/C(O)=C(\C1=NCCCN1)c1nnc(N)s1 | 38 | 26 | 50 | 22 |  |
| CCN1C(=N)C2C(=O)N(CC)C(=S)N3CCCN(C1=S)C23 (stereo unspecified) | 48 | 40 | 50 | 50 |  |
| SILYMARIN | 47 | 50 | 47 | 61 |  |
| CC/N=C(/S)N1CCn2c1c(C#N)c(=O)n(CC)c2=S | 56 | 31 | 70 | 60 |  |
| CCO/C(O)=C(\C1=NCCN1)c1nnc(N)s1 |  | 33 | 51 | 53 | 19 |
